In ChEMBL document CHEMBL4152365, “Discovery of DS-6930, a potent selective PPARγ modulator. Part I: Lead identification” (Bioorg Med Chem, 2018):
Converted amounts (≈) assume the structure as drawn. The source made the active and inactive calls. The rule behind the calls is not given here.

Experiments:
Mus musculus [1] = assay: Glucose-lowering effect in hyperglycemic KK/Ta mouse assessed as reduction in plasma glucose level at 30 mg/kg/day, po administered through diet for 3 days relative to control; assay type: functional; design: scale not given: the % may be the effect or the level left
[2] = molecular target: T1, Peroxisome proliferator-activated receptor gamma (Homo sapiens) (UniProt P37231); assay: Agonist activity at recombinant human GAL4-DBD fused PPARgamma LBD expressed in COS7 cells at 10 uM after 24 hrs by luciferase reporter gene assay relative to rosiglitazone; assay type: cell-based
T1 sequence (whole entry): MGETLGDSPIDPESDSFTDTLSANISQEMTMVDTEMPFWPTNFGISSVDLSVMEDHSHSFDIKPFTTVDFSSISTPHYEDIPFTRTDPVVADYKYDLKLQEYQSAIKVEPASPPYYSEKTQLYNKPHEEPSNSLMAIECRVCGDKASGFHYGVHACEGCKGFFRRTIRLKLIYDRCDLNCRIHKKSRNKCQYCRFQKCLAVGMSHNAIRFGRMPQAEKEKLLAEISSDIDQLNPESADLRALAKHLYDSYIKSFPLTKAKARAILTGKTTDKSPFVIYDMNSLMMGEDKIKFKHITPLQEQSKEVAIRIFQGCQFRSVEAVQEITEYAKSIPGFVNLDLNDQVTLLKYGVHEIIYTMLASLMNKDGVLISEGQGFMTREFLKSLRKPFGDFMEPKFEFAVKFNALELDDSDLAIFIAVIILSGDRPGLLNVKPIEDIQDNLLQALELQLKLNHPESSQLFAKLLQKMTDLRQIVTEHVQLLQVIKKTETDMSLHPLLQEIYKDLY

[3] = molecular target: T2, Peroxisome proliferator-activated receptor alpha (Homo sapiens) (UniProt Q07869); assay: Agonist activity at recombinant human GAL4-DBD fused PPARalpha LBD expressed in COS7 cells at 10 uM after 24 hrs by luciferase reporter gene assay relative to 2-(4-tert-Butylphenoxy)-3-[4-[2-[(4-pyridin-2-ylbenzoyl)amino]ethoxy]; assay type: cell-based
T2 sequence (whole entry): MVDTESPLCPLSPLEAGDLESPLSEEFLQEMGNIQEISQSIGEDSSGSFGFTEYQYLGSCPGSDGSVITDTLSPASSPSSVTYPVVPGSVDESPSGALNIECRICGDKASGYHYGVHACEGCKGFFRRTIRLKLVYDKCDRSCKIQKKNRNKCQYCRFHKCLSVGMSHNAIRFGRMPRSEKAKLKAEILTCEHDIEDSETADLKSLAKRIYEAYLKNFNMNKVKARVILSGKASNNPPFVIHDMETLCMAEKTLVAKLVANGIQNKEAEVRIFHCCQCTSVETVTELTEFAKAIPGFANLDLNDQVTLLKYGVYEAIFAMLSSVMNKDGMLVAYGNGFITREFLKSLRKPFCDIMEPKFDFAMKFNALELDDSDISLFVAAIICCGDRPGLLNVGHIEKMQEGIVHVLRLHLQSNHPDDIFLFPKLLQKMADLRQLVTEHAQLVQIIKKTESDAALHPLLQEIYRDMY

[4] = molecular target: T3, Peroxisome proliferator-activated receptor alpha (Homo sapiens, UniProt Q07869); assay: Agonist activity at recombinant human GAL4-DBD fused PPARalpha LBD expressed in COS7 cells after 24 hrs by luciferase reporter gene assay; assay type: cell-based
T3 sequence (Q07869 whole entry): T2 sequence (whole entry)

Mus musculus [5] = assay: Toxicity in hyperglycemic KK/Ta mouse assessed as body weight gain at 30 mg/kg/day, po administered through diet for 3 days relative to control; assay type: organism-based; conditions: in vivo, 72 h
[6] = molecular target: T4, Peroxisome proliferator-activated receptor delta (Homo sapiens) (UniProt Q03181); assay: Agonist activity at PPARdelta (unknown origin) at 10 uM
T4 sequence (whole entry): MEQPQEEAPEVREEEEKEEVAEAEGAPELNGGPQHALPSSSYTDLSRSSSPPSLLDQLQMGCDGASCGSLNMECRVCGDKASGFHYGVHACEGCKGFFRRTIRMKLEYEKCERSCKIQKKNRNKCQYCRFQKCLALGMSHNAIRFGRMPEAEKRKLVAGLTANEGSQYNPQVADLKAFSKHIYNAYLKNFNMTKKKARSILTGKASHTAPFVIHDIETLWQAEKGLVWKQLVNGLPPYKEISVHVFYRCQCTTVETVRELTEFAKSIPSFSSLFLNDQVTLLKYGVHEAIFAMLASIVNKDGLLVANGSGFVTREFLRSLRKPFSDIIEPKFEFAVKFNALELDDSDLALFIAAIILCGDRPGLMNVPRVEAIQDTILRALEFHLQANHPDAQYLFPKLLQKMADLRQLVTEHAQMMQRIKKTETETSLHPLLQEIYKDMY

[7] = 1-octanol/PBS distribution co-efficient, log D of the compound at […] at pH 7.4 after 30 mins by HPLC-MS/MS analysis; assay type: physicochemical
[8] = Metabolic stability in human liver microsomes after 0.5 hrs; assay type: ADME, microsome; conditions: read-out: Stability
[9] = molecular target: T5, Peroxisome proliferator-activated receptor gamma (Homo sapiens, UniProt P37231); assay: Agonist activity at recombinant human GAL4-DBD fused PPARgamma LBD expressed in COS7 cells after 24 hrs by luciferase reporter gene assay; assay type: cell-based
T5 sequence (P37231 whole entry): T1 sequence (whole entry)

[10] = Plasma concentration in hyperglycemic KK/Ta mouse at 30 mg/kg/day, po administered through diet for 3 days measured on day 3 post last dose; assay type: ADME, organism-based
[11] = Aqueous thermodynamic solubility of the compound in pH 6.8 solution up to 4 hrs by HPLC-UV analysis; assay type: physicochemical; conditions: read-out: Therm_solubility
[12] = Cmax in cynomolgus monkey at 3 mg/kg, po by LC-MS/MS analysis; assay type: ADME, organism-based, Macaca fascicularis; design: dose 3 mg/kg, route oral; conditions: in vivo
[13] = Volume of distribution at steady state in cynomolgus monkey at 1 mg/kg, iv by LC-MS/MS analysis; assay type: ADME, organism-based, Macaca fascicularis; conditions: in vivo, read-out: Vdss
[14] = Metabolic stability in cynomolgus monkey liver microsomes after 0.5 hrs; assay type: ADME, Macaca fascicularis, microsome; conditions: read-out: Stability
[15] = AUClast in cynomolgus monkey at 3 mg/kg, po by LC-MS/MS analysis; assay type: ADME, organism-based, Macaca fascicularis; design: dose 3 mg/kg, route oral, time 0 - last; conditions: in vivo
[16] = Tmax in Zucker diabetic fatty rat at 3 mg/kg, po dosed once daily for 14 days and followed by additional administeration on day 15; assay type: ADME, organism-based; conditions: in vivo
Rattus norvegicus [17] = assay: Glucose-lowering effect in Zucker diabetic fatty rat assessed as reduction in plasma glucose level at 3 mg/kg, po administered once daily for 14 days measured on day 14 post last dose relative to control; assay type: functional; design: scale not given: the % may be the effect or the level left
[18] = Clearance in cynomolgus monkey at 1 mg/kg, iv by LC-MS/MS analysis; assay type: ADME, organism-based, Macaca fascicularis; conditions: in vivo
Rattus norvegicus [19] = assay: Toxicity in Zucker diabetic fatty rat assessed as body weight gain at 3 mg/kg, po administered once daily for 14 days relative to control; assay type: organism-based; conditions: in vivo, 336 h
[20] = Oral bioavailability in cynomolgus monkey at 3 mg/kg by LC-MS/MS analysis; assay type: ADME, organism-based, Macaca fascicularis; conditions: in vivo
[21] = AUC (0 to 24 hrs) in Zucker diabetic fatty rat at 3 mg/kg, po dosed once daily for 14 days and followed by additional administeration on day 15; assay type: ADME, organism-based; design: dose 3 mg/kg, time < 24 hr, route oral; conditions: in vivo
[22] = Cmax in Zucker diabetic fatty rat at 3 mg/kg, po dosed once daily for 14 days and followed by additional administeration on day 15; assay type: ADME, organism-based; design: dose 3 mg/kg, route oral; conditions: in vivo
[23] = Tmax in cynomolgus monkey at 3 mg/kg, po by LC-MS/MS analysis; assay type: ADME, organism-based, Macaca fascicularis; conditions: in vivo
[24] = Half life in cynomolgus monkey at 3 mg/kg, po by LC-MS/MS analysis; assay type: ADME, organism-based, Macaca fascicularis; conditions: in vivo
[25] = Metabolic stability in rat liver microsomes after 0.5 hrs; assay type: ADME, microsome; conditions: read-out: Stability

Cc1cccc(Oc2ccc3nc(COc4cccc(C(=O)O)c4)n(C)c3c2)c1
Activity (Mus musculus [1]): 56.9% | Emax [2]: 76% | Emax [3]: 19% | EC50 [4]: > 10 µM | Activity (Mus musculus [5]): 3.2% | Activity [6]: inactive | logD at 0.5 h [7]: 2.3 | remaining at 0.5 h [8]: 69% | EC50 [9]: 79 nM | concentration at 72 h [10]: 90 ng/mL | solubility thermodynamic at 4 h [11]: 3.8 µg/mL (≈ 9.78 µM)

Cn1c(COc2cccc(C(=O)O)c2)nc2ccc(Oc3ccc(Cl)cc3)cc21
Activity (Mus musculus [1]): 34.4% | Emax [2]: 62% | Emax [3]: 8% | EC50 [4]: > 10 µM | Activity (Mus musculus [5]): 4.1% | Activity [6]: inactive | logD at 0.5 h [7]: 2.6 | EC50 [9]: 126 nM | solubility thermodynamic at 4 h [11]: 2 µg/mL (≈ 4.89 µM)

COc1cccc(Oc2ccc3nc(COc4cccc(C(=O)O)c4)n(C)c3c2)c1
Emax [2]: 92% | Emax [3]: 30% | EC50 [4]: > 10 µM | Activity [6]: inactive | logD at 0.5 h [7]: 1.8 | remaining at 0.5 h [8]: 68% | EC50 [9]: 235 nM | solubility thermodynamic at 4 h [11]: 5.4 µg/mL (≈ 13.4 µM)

Cn1c(COc2cccc(C(=O)O)c2)nc2ccc(Oc3cccc(OC(F)(F)F)c3)cc21
Activity (Mus musculus [1]): 41.9% | Emax [2]: 69% | Emax [3]: 17% | EC50 [4]: > 10 µM | Activity (Mus musculus [5]): 5.3% | Activity [6]: inactive | logD at 0.5 h [7]: 3.3 | remaining at 0.5 h [8]: 98% | EC50 [9]: 113 nM | concentration at 72 h [10]: 370 ng/mL | solubility thermodynamic at 4 h [11]: 0.9 µg/mL (≈ 1.96 µM)

Cc1ccc(Oc2ccc3nc(COc4cccc(C(=O)O)c4)n(C)c3c2)cc1F
Cmax [12]: 2060 ng/mL | Vd [13]: 0.32 L/kg | Activity (Mus musculus [1]): 56.8% | Emax [2]: 80% | remaining at 0.5 h [14]: 91% | Emax [3]: 40% | EC50 [4]: > 10 µM | Activity (Mus musculus [5]): 4.2% | AUC(0-t) [15]: 8440 ng·h/mL | Tmax [16]: 2 h | Activity (Rattus norvegicus [17]): 59.3% | clearance [18]: 1.8 mL/min/kg | Activity (Rattus norvegicus [19]): 13.8% | logD at 0.5 h [7]: 2.7 | bioavailability [20]: 28% | remaining at 0.5 h [8]: 91% | AUC at 24 h [21]: 5530 ng·h/mL | EC50 [9]: 4.4 nM | Cmax [22]: 790 ng/mL | concentration at 72 h [10]: 470 ng/mL | Tmax [23]: 1.5 h | half-life [24]: 828 min | remaining at 0.5 h [25]: 100% | solubility thermodynamic at 4 h [11]: 4.4 µg/mL (≈ 10.8 µM)

Cl.Cn1c(COc2cccc(C(=O)O)c2)nc2ccc(Oc3cccc(C(F)(F)F)c3)cc21
Activity (Mus musculus [1]): 45.1% | Emax [2]: 81% | Emax [3]: 56% | Activity (Mus musculus [5]): 3.8% | Activity [6]: inactive | logD at 0.5 h [7]: 2.8 | remaining at 0.5 h [8]: 85% | EC50 [9]: 23 nM | concentration at 72 h [10]: 90 ng/mL

COc1ccccc1Oc1ccc2nc(COc3cccc(C(=O)O)c3)n(C)c2c1.Cl
Emax [2]: 60% | Emax [3]: 4% | EC50 [4]: > 10 µM | Activity [6]: inactive | logD at 0.5 h [7]: 1.3 | remaining at 0.5 h [8]: 74% | EC50 [9]: 474 nM | solubility thermodynamic at 4 h [11]: 12 µg/mL
